Source: ChEMBL document CHEMBL6078612, “Novel strategies based on natural products and synthetic derivatives to overcome resistance in Mycobacterium tuberculosis” (Eur J Med Chem, 2024)
≈ marks a conversion by molar mass, not a printed value.

Test system: Mycobacterium tuberculosis
Assay: Antimycobacterial activity against multi-drug resistant Mycobacterium tuberculosis
Assay type: functional

Molecule | MIC
H-GWLDVAKKIGKAAFNVAKNFI-OH | < 0.98 µg/mL
CC(=O)NC[C@H]1CN(c2ccc(N3CCOCC3)c(F)c2)C(=O)O1 [LINEZOLID] | 0.125 µg/mL (≈ 0.371 µM)
